ChEMBL document CHEMBL1149328, “Estrogen receptor ligands. II. Discovery of benzoxathiins as potent, selective estrogen receptor alpha modulators” (J Med Chem, 2004)
pIC50: −log10 of the molar value.

Assays:
Estrogen receptor beta [1] = biological target: T1, Estrogen receptor beta (Homo sapiens, UniProt Q92731)
Description: Binding affinity towards human recombinant Estrogen receptor beta was determined

Estrogen receptor [2] = biological target: T2, Estrogen receptor (Homo sapiens, UniProt P03372)
T2 sequence (P03372 whole entry): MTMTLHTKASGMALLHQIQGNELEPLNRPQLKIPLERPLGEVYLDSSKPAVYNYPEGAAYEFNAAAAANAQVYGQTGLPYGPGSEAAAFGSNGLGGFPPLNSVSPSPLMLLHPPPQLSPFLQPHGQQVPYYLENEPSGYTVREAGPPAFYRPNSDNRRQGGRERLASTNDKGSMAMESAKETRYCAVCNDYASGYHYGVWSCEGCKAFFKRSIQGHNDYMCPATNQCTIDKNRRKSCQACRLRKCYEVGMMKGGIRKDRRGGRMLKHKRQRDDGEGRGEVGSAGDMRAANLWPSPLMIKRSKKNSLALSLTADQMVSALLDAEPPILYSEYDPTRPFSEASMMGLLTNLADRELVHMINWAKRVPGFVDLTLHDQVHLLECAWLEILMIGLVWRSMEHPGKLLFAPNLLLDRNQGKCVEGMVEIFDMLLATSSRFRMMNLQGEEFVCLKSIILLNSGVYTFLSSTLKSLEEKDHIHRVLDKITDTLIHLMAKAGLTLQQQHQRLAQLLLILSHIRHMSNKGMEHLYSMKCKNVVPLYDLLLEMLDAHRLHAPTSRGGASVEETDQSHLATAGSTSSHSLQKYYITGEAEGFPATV
Description: Binding affinity towards human recombinant Estrogen receptor alpha was determined

[3] = biological target: T3, Estrogen receptor (Rattus norvegicus) (UniProt P06211+Q62986); details: at 1 mg/kg
Description: (§1) Anti-uterotrophic activity in rats after 1 mg/kg subcutaneous dose for 3 days with estradiol

[4] = biological target: T3, Estrogen receptor (Rattus norvegicus); details: at 1 mg/kg; remark: listed apart in the source
Description: Anti-uterotrophic activity in rats after 1 mg/kg subcutaneous dose for 3 days without estradiol

Estrogen receptor [5] = biological target: T2, Estrogen receptor; experiment: In vitro binding affinity for Estrogen receptor alpha in HEK293 cells; type: cell-based
Estrogen receptor beta [6] = biological target: T1, Estrogen receptor beta; experiment: biochemical
Description: In vitro binding affinity for Estrogen receptor beta in HEK293 cells

[7] = biological target: T3, Estrogen receptor (Rattus norvegicus); details: Uterus, at 1 mg/kg
Description: Uterotrophic activity in rats after 1 mg/kg peroral dose for 3 days without estradiol

[8] = biological target: T3, Estrogen receptor (Rattus norvegicus); details: at 1 mg/kg; remark: listed apart in the source
Description: as §1

[9] = biological target: T3, Estrogen receptor (Rattus norvegicus); details: Uterus, at 0.3 mg/kg
Description: Uterotrophic activity in rats after 0.3 mg/kg peroral dose for 3 days with estradiol

T1 sequence (Q92731 whole entry): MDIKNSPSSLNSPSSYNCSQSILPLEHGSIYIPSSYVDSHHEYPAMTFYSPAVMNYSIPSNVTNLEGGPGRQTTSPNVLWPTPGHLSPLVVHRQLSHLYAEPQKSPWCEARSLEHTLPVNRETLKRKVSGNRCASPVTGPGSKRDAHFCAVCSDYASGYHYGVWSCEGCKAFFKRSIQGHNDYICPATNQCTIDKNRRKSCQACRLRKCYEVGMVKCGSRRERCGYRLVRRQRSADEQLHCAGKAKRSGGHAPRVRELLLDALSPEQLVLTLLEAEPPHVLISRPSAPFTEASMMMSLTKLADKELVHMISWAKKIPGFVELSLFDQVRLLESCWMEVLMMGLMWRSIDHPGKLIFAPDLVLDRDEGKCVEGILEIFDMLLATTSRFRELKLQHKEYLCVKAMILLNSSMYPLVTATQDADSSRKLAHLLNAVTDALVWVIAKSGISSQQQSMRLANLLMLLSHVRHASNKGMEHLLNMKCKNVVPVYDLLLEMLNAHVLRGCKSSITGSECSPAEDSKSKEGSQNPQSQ

Row | Structure (SMILES) | pIC50 (Estrogen receptor beta [1]) | pIC50 (Estrogen receptor [2]) | inhibition [3] | further results
1 | O=S1(=O)c2cc(O)ccc2O[C@H](c2ccc(OCCN3CCCCC3)cc2)[C@@H]1c1ccc(O)cc1 | 5.23 | 5.96 |  | 
2 | O=C1c2ccc(O)cc2O[C@H](c2ccc(OCCN3CCCCC3)cc2)[C@@H]1c1ccc(O)cc1 | 5.56 | 7.41 |  | 
3 | [O-][S+]1c2cc(O)ccc2O[C@H](c2ccc(OCCN3CCCCC3)cc2)[C@@H]1c1ccc(O)cc1 (stereo partly specified) | < 4.00 | < 4.00 |  | 
4 | Oc1ccc([C@H]2Sc3cc(O)ccc3O[C@H]2c2ccc(OCCN3CCCCC3)cc2)cc1 |  |  |  | Control [7]: 9%; inhibition [8]: 0.4%; inhibition [9]: 11.4%
5 | Oc1ccc2c(c1)S[C@@H](c1ccccc1)[C@@H](c1ccc(OCCN3CCCCC3)cc1)O2 | 6.74 | 8.21 |  | 
6 | Oc1ccc([C@@H]2Sc3ccccc3O[C@@H]2c2ccc(OCCN3CCCCC3)cc2)cc1 | 7.15 | 8.00 |  | 

Continued, in another order:

Row | pIC50 (Estrogen receptor beta [1]) | pIC50 (Estrogen receptor [2]) | inhibition [3] | Structure (SMILES) | further results
7 | 7.35 | 8.80 |  | Oc1ccc([C@@H]2Sc3ccc(O)cc3O[C@@H]2c2ccc(OCCN3CCCCC3)cc2)cc1 | 
8 |  |  | 16% | Oc1ccc([C@@H]2Sc3cc(O)ccc3O[C@@H]2c2ccc(OCCN3CCCCC3)cc2)cc1 (stereo in doubt; 4-L) | 
9 |  |  | 77% | Oc1ccc([C@@H]2Sc3cc(O)ccc3O[C@H]2c2ccc(OCCN3CCCCC3)cc2)cc1 (racemic) | Control [4]: 5%
10 | 8.29 | 8.80 | 55% | Oc1ccc(C2=C(c3ccc(OCCN4CCCCC4)cc3)Oc3ccc(O)cc3S2)cc1 | pIC50 (Estrogen receptor [5]): 8.29; Control [4]: 45%; pIC50 (Estrogen receptor beta [6]): 6.80
11 |  |  | 18% | Oc1ccc([C@@H]2Sc3cc(O)ccc3O[C@@H]2c2ccc(OCCN3CCCCC3)cc2)cc1 (racemic) | Control [4]: 20%
